These results are taken from patent publication US9399790B2, “Stable NAD/NADH derivatives” (Roche Diabetes Care, Inc., priority 2006, dated 2016).

For series [1], the target named is T1, glucose dehydrogenase (GlucDH) (Bacillus subtilis, UniProt P12310). Briefly: Glucose dehydrogenase (GlucDH) activity assay with NAD derivative as cofactor. It counts as biochemical. The following applies: for U/ml: GlucDH 0.002 mg/ml (NAD). As for the experimental part:
In order to examine the role of pNAD as a cofactor for glucose dehydrogenase (GlucDH), a glucoseDH activity assay in 0.1 M Tris/0.2 M NaCl (pH 8.5) buffer was carried out. The concentration of glucose was 80 mM. pNAD and NAD concentrations of 0.05-0.5 mM were used. To this, 10 mg/ml (pNAD) or 0.002 mg/ml (NAD) [83 or 0.017 μM respectively] GlucDH was added. The assay was carried out at room temperature and the enzymatic reaction was monitored by recording absorption spectra at regular time intervals. The values shown in table 1 refer to an absorption measurement after 4 min.
A glucose dehydrogenase activity assay for cNAD compared to NAD was carried out as described under B) for pNAD. For this purpose glucose dehydrogenase concentrations of […] and 0.002 mg/ml (NAD) [0.83 and 0.017 μM respectively] were used.

Series [2] is described as follows: Examination of the stability of carbaNAD (stressing in solution, HPLC). The following applies: 10 mM solution, pH 8, 0.1 M potassium phosphate buffer, 8° C. and 37° C., after 0.25, 75 and 175 h. It counts as physicochemical. As to the method: A 10 mM solution of carbNAD and/or NAD is stressed at pH 8 in 0.1 M potassium phosphate buffer. The content is determined by means of HPLC chromatography after 0.25, 75 and 175 h.
Buffer A: 100 mM KHPO4+10 mM tetrabutylammonium hydrogen sulfate, pH 6.9 buffer B: buffer A+acetonitrile 1:1 flow rate 1.0 ml/min detection: 254 nm […]
gradient: in 40 min to 35% buffer B, hold for 2 min and then change to 0% buffer A within 3 min.

A short description of series [3]: Investigation of the stability of pNAD (incubation at 50° C., HPLC). The class given is physicochemical. The following applies: 0.15 M KPO4, 1 M NaCl buffer (pH 7.0). As to the method:
In order to examine the stability of pNAD compared to NAD, the same amounts of NAD and pNAD were each taken up in 0.15 M KPO4, 1 M NaCl buffer (pH 7.0) and incubated at 50° C. The decomposition of NAD and/or pNAD were monitored by HPLC.

Series [4] deals with T1, glucose dehydrogenase (GlucDH). As to the kind of experiment: Glucose dehydrogenase (GlucDH) activity assay with NAD derivative as cofactor. It counts as biochemical. The following applies: 0.05 mM (p)NAD; 80 mM glucose; 0.1 M Tris/0.2 M NaCl pH 8.5; room temperature; absorption after 4 min; GlucDH 0.02 mg/ml (NAD), 10 mg/ml (pNAD).
[5] abbreviates: 0.05 mM (c)NAD, relative to NAD = 100.
Setting [6] is: 0.05 mM (p)NAD, relative to NAD = 100, 80 mM glucose, pH 8.5, after 4 min.
Where [7] appears, read: 0.1 mM (c)NAD, relative to NAD = 100.
Where [8] appears, read: 0.4 mM (p)NAD, relative to NAD = 100, 80 mM glucose, pH 8.5, after 4 min.

T1 sequence (P12310 whole entry): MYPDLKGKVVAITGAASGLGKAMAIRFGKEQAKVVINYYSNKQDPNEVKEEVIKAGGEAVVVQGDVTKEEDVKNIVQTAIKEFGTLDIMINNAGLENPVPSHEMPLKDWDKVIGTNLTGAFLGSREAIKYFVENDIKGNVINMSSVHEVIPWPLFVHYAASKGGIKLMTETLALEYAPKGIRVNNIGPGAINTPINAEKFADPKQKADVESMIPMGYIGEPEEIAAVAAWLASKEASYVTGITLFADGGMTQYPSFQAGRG

As for `NC(=O)c1ccc[n+]([C@@H]2O[C@H](COP(=O)([O-])OP(=O)(O)OC[C@H]3O[C@@H](n4cnc5c(N)ncnc54)[C@H](O)[C@@H]3O)[C@@H](O)[C@H]2O)c1` [NAD, nicotinamide adenine dinucleotide, reference compound], the activity at 50 µM in series [1] (setting [5]) and in series [1] (setting [6]) was 100% each time. In addition, the activity at 100 µM in series [1] (setting [7]) worked out at 100%. Moreover, in series [1] (setting [8]), the activity at 400 µM is 100%.

As to `NC(=O)c1ccc[n+]([C@@H]2C[C@H](COP(=O)([O-])OP(=O)(O)OC[C@H]3O[C@@H](n4cnc5c(N)ncnc54)[C@H](O)[C@@H]3O)[C@@H](O)[C@H]2O)c1` [cNAD, carbaNAD], the U/ml in series [1] (0.05 mM (c)NAD, assay as for pNAD, 0.1 mg/ml (cNAD)) is 2.7 U/ml; in series [1] (0.1 mM (c)NAD, assay as for pNAD, 0.1 mg/ml (cNAD)), 5.3 U/ml. The “% activity” value in series [1] (setting [5]) amounted to 0.63%; in series [1] (setting [7]), 0.95%. Besides, the “stability (occurrence of decomposition products, HPLC area percentages)” value in series [2] is “very stable compared to NAD”.

`NC(=O)c1ccc[n+]([C@@H]2CN[C@H](COP(=O)([O-])OP(=O)(O)OC[C@H]3O[C@@H](n4cnc5c(N)ncnc54)[C@H](O)[C@@H]3O)C2)c1` [pNAD, Pyrrolidinyl-NAD] registered an activity at 50 µM in series [1] (setting [6]) of 3e-05%. Also, the U/ml turned out to be 0.0024 U/ml in series [1] (0.4 mM (p)NAD, 80 mM glucose, 0.1 M Tris/0.2 M NaCl pH 8.5, room temperature, absorption after 4 min, 10 mg/ml (pNAD)) and 0.00017 U/ml in series [4]. The activity at 400 µM in series [1] (setting [8]) amounted to 0.00015%. In addition, the “stability (percentage areas of (p)NAD compared to time zero, HPLC)” value in series [3] is “very stable compared to NAD”.
